Where two headings read alike, the source gives them in different places. Where only a bound is given, the exact number is not on record here.

Series [1] relates to Caco-2 cell monolayers. Nature of the series: Lucifer yellow passage across Caco-2 monolayers (monolayer integrity). Type of series: in vitro ADME. As to conditions: 100 µg/mL, 37 °C, all the experiments. How it is done:
To determine the cell monolayers integrity, the TEER values and percent of Lucifer yellow transport across the cell monolayers were measured. The TEER was measured using an EVOM 2 Epithelial Voltohmmeter (World Precision Instrument, Sarasota, USA). The transport studies were conducted when the TEER values were more than 300-400 Ωcm^2. A reduction in the TEER recorded across a monolayer indicates the dilation of tight junctions or a disruption of the monolayer ([16], [17]). Lucifer yellow is a small hydrophilic fluorescent molecule that is easily detectable by spectrophotofluorometer (485 nm excitation and 535 nm emission). The paracellular transfer of Lucifer yellow was determined and served as an additional marker for the epithelial cell tightness. In each set of experiments, Lucifer yellow was added (100 µg/mL) to the inserts and its passage was evaluated at 37 °C ([18]).
Where TEERmono is the cell monolayer and porous membrane resistance, TEERblank the porous membrane resistance, and A the porous membrane surface area. The Lucifer yellow transport was calculated according to the following equation ([18]):
Lucifer Yellow Passage% = [(Ft − Fb)/(F0 − Fb)] × 100
Ft is the fluorescence intensity of Lucifer yellow across the monolayer, F0 the initial fluorescence intensity of Lucifer yellow on the donor side, and Fb the fluorescence intensity of the blank sample (HBSS/HEPES buffer alone).

The nature of series [2]: Bi-directional transport of REG across Caco-2 cell monolayers. The note with it: human, Caco-2, mean ± SD, n = 3. Type of series: in vitro ADME. How it is done:
(§1) Caco-2 cells (purchased from Pasteur Institute of Iran) were grown on 75 cm^2 plastic culture flasks, containing 15% (V/V) fetal bovine serum (FBS), 50% RPMI 1640, 34% DMEM and 1% (V/V) penicillin–streptomycin at 37 °C in a 95% humidified air with 5% CO2. The growth medium was changed every other day, and the cells were trypsinized using Trypsin-EDTA every 4 days for passage. The cells with passage numbers of 35-40 were used for the drug transport experiments.
(§2) When reaching 80–90% confluency, for transport study, the cells were seeded on polycarbonate filter inserts (with pore size of 0.4 µm, 1.13 cm^2 surface area, Korea) at a density of 5 × 10^4 cells/cm^2 and grown for 21 days to allow full expression of P-gp and appropriate tight junctions. To evaluate the integrity of cellular monolayer, the transepithelial electrical resistance (TEER) was measured and transport studies were conducted when the TEER values were more than 300-400 Ωcm^2. Before conducting drug transport experiments, the cells were washed twice with HBSS containing 25 mM HEPES (pH 7.4, 37 °C). Then, monolayers were pre-incubated at 37 °C for 30 min, and TEER values were measured. HBSS/HEPES buffer on both sides of the cell monolayers was then removed by aspiration and replaced with REG solution with various concentrations (20, 40 and 60 µM) on one side of the cell layer, apical (A) or basolateral (B), and fresh blank buffer on the other side. The volume of the buffer on the apical and basolateral side of the cell layer was 0.3 mL and 0.7 mL, respectively. The monolayers were incubated at 37 °C, placed in a shaker and shaken at 50 rpm during the transport process. The samples were taken from the receptor chamber (apical side or basolateral side in the case of B-A and A-B transport studies, respectively) at 30, 60, 90, 120 and 180 min, and then replaced with the same volume of the pre-warmed fresh buffer. Each experiment was repeated three times and REG concentration was determined by the HPLC system. The inhibition of REG efflux across Caco-2 cells was examined in the presence of two common P-gp inhibitors: verapamil (100 μM) and valspodar (5 μM).
(§3) HPLC was conducted using a system consisting of a Wellchrom K-1001 HPLC pump and a K-2700 diode array UV/VIS spectrophotometric detector (Knauer, Germany). The analyses were conducted at ambient temperature on a Perfect Sil RP-18 (150 mm × 4.6 mm i.d., Merck). The optimal mobile phase for REG was a mixture of acetonitrile and phosphate buffer 0.02 M (60:40 V/V) delivered at a flow rate of 1 mL/min. The detection wavelength was set at 242 nm and the injection volume was 100 μL. The column temperature was maintained at room temperature. The calibration curves were linear over the concentration range of 100-1000 ng/mL (R^2 > 0.994). The intra-day and inter-day coefficients of the variation (CV) were all less than 5%.
(§4) Apparent permeability coefficients (Papp) of REG were calculated in everted gut sac and Caco-2 cell line according to the below equation ([19]): […]
(§5) Where the dQ/dt (ng/min) is drug permeation rate, A (cm^2) the cross sectional area, and C0 (ng/mL) the initial concentration of REG in the donor chamber. In Caco-2 cell, the Papp of REG was calculated in both apical to basolateral (papp.AB), and basolateral to apical (papp.BA) directions. The efflux ratio (ER) of the drug in Caco-2 cell was assessed by calculating the ratio of papp.BA to papp.AB (papp.BA/papp.AB). TEER was calculated based on the following equation ([16]): […]
A general note: Passage across Caco-2 layers is used to estimate intestinal permeability.

Another series concerns P-gp. Described as above. The note with it: human, Caco-2, mean ± SD, n = 3; for efflux ratio at 180 min, 40 µM: read-out: ER (efflux ratio, papp.BA/papp.AB). The series is classed as in vitro ADME. On the procedure:
as §1, §2, §3, §4, §5

In series [3] the test system is Caco-2 cell monolayers. Described as above. The series is classed as in vitro ADME. As to conditions: Caco-2 results, ER and effect of P-gp inhibitors. On the procedure: as §1, §2, §3, §4, §5
Series [4] can be described thus: Everted gut sac transport of REG, mucosal to serosal. Type of series: in vitro ADME, rat. As to conditions: for Increase in drug permeability in presence of inhibitor: everted gut sac. How it is done: The everted sac method was used as previously described ([11]). All animal experiments were approved by the local ethics committee of Shahid Beheshti University of Medical Sciences (Tehran, Iran). Male Wistar rats weighing 230 and 250 g were fasted for 24 h but were allowed free access to water. Under deep anesthesia, the jejunum of the rat intestines (approximately 10 cm) was quickly excised, and the underlying mesenterium was removed. The segment was washed several times with normal saline solution and placed immediately into the oxygenated Krebs buffer (composition: NaCl 118 mM, NaHCO3 25 mM, KCl 4.7 mM, CaCl22.5 mM, MgSO4 1.2 mM, KH2PO4 1.2 mM, and d-glucose 11 mM). The intestine was carefully everted on a glass rod (3.0 mm diameter), filled with 2 mL of Krebs buffer, and divided into sacs approximately 4.5 cm in length with silk suture. The sacs were placed in the oxygenated buffer solution (pH 6.8). The solution was maintained at 37 °C with 95% O2 and 5% CO2 throughout the experiment.
Sacs were placed in 25 mL of oxygenated buffer solutions (pH 6.8) containing different concentrations of REG (10 to 100 µM) with or without the P-gp inhibitors at the typically used inhibitory concentrations: verapamil (100 µM), valspodar (5 µM), or ketoconazole (10 µM) ([12]-[14]). At various time points, 10, 20, 35, 45, 60, and 90 min, sacs were removed, blotted dry, and the serosal contents were collected. REG serosal concentration was determined by a validated HPLC method (Section 2.4). Each sac was weighed before and after the experiment to calculate the fluid volume inside the sac.
as §3, §4, §5

[5] abbreviates: pH 7.4, with valspodar 5 µM, REG 40 µM + valspodar 5 µM.
The mark [6] stands for this setting: pH 7.4, with verapamil 100 µM, REG 40 µM + verapamil 100 µM.

On to Lucifer yellow, for which the “Transport (passage) of Lucifer yellow across the monolayer” value in the series with Caco-2 cell monolayers [1] is reported as under 0.3%.

Usually Papp A→B stands for how fast a substance crosses the layer from the apical side. What is called Papp B→A is how fast a substance crosses the layer from the basolateral side. In general, Papp refers to a coefficient for how fast a substance crosses the barrier. `CCOc1cc(CC(=O)N[C@@H](CC(C)C)c2ccccc2N2CCCCC2)ccc1C(=O)O` [REG, Repaglinide]: the efflux ratio at 180 min, 20 µM in series [2] (Caco-2, pH 7.4, REG 20 µM, read-out: ER (efflux ratio, papp.BA/papp.AB)) stood at 0.64 ± 0.02. For the same compound, the efflux ratio at 180 min, 40 µM in series [2] (Caco-2, pH 7.4, REG 40 µM, read-out: ER (efflux ratio, papp.BA/papp.AB)) was determined as 0.65 ± 0.05; with P-gp (Caco-2, pH 7.4, with valspodar 5 µM, REG 40 µM + valspodar 5 µM), 0.68 ± 0.07; with P-gp (Caco-2, pH 7.4, with verapamil 100 µM, REG 40 µM + verapamil 100 µM) it was 0.61 ± 0.09. Also, the efflux ratio at 180 min, 60 µM in series [2] (Caco-2, pH 7.4, REG 60 µM, read-out: ER (efflux ratio, papp.BA/papp.AB)) worked out at 0.8 ± 0.07. In series [2] (pH 7.4, REG 20 µM), the Papp A→B at 180 min, 20 µM amounted to 16.7 ± 0.4 ×10⁻⁶ cm/s. The compound further had a Papp B→A at 180 min, 20 µM in series [2] (pH 7.4, REG 20 µM) of 10.7 ×10⁻⁶ cm/s. The Papp A→B at 180 min, 40 µM in series [2] (pH 7.4, REG 40 µM) was 18.4 ± 1.2 ×10⁻⁶ cm/s; in the series on P-gp (setting [5]) it was 16.4 ± 0.5 ×10⁻⁶ cm/s; in the series on P-gp (setting [6]), 19.6 ± 2.7 ×10⁻⁶ cm/s. Further, the apparent permeability from basolateral to apical (Papp B→A) at 180 min, 40 µM is 11.9 ×10⁻⁶ cm/s in series [2] (pH 7.4, REG 40 µM); 11.2 ×10⁻⁶ cm/s in the series on P-gp (setting [5]); 11.8 ± 1.2 ×10⁻⁶ cm/s in the series with P-gp (setting [6]). The compound also showed a Papp A→B at 180 min, 60 µM in series [2] (pH 7.4, REG 60 µM) of 18.3 ± 0.4 ×10⁻⁶ cm/s. The compound further had a Papp B→A at 180 min, 60 µM in series [2] (pH 7.4, REG 60 µM) of 14.6 ×10⁻⁶ cm/s. The “P-gp substrate recognition (FDA guidance criteria)” value in the series on Caco-2 cell monolayers [3] is on record as “cannot be considered as a distinct P-gp substrate”. Further, the “Increase in drug permeability in presence of inhibitor” value in series [4] (REG 20 µM plus ketoconazole 10 µM versus control) stood at 3 fold; in series [4] (REG 20 µM plus valspodar 5 µM versus control), 2.6 fold; in series [4] (REG 20 µM plus verapamil 100 µM versus control) it was 3 fold. For the same compound, the “Apparent permeability coefficient (Papp) across everted gut sacs” value is 1.23 ± 0.19 × 10^-5 cm/s in series [4] (REG 40 µM, mucosal to serosal, rat jejunum, pH 6.8, mean ± SD, n = 3) and 3.29 ± 0.58 × 10^-5 cm/s in series [4] (REG 100 µM, mucosal to serosal, rat jejunum, pH 6.8, mean ± SD, n = 3). Also, the Papp at 90 min, 40 µM in series [4] (male, Wistar, rat, pH 6.8, drug concentration 40 µM, read-out: Papp in everted gut sacs (abstract)) was 12.3 ×10⁻⁶ cm/s. Also, the Papp at 90 min, 100 µM in series [4] (male, Wistar, rat, pH 6.8, drug concentration 100 µM, read-out: Papp in everted gut sacs (abstract)) amounted to 32.9 ×10⁻⁶ cm/s. The apparent permeability coefficient (Papp) at 90 min, 10 µM in series [4] (male, Wistar, REG 10 µM, mucosal to serosal, rat jejunum, pH 6.8, mean ± SD, n = 3, read-out: Apparent permeability coefficient (Papp) across everted gut sacs) is 12.1 ± 1.4 ×10⁻⁶ cm/s. Besides, in series [4] (male, Wistar, REG 20 µM, mucosal to serosal, rat jejunum, pH 6.8, mean ± SD, n = 3, read-out: Apparent permeability coefficient (Papp) across everted gut sacs), the apparent permeability coefficient (Papp) at 90 min, 20 µM was 11.6 ± 0.9 ×10⁻⁶ cm/s.

The record behind these values is publication PMC6487404, “An Investigation into the Role of P-Glycoprotein in the Intestinal Absorption of Repaglinide: Assessed by Everted Gut Sac and Caco-2 Cell Line” (Iranian Journal of Pharmaceutical Research : IJPR, 2019).
